Source: patent US9840478B2 (MERCK SHARP & DOHME CORP., priority 2013, dated 2017)

The compounds below were run on HIV-1 (H9IIIB strain) (assay: Cell-based HIV infection assay using a reporter (Cell-Based), MT4-GFP cells). Details: Human immunodeficiency virus 1, MT4-GFP cells infected with HIV-1 H9IIIB; 50% normal human serum; mean of at least two independent experiments; read-out: Cell-based IP.
Outline: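 MT4-GFP cells (HIV LTR-driven GFP) infected 24 h with HIV-1 H9IIIB at low MOI, then washed and plated with compounds in RPMI + 50% normal human serum, 0.4% DMSO final. Green cells counted at 24 and 48 h; R0 = 48 h/24 h ratio, inhibition normalized to DMSO and triple-drug control; IC50 from 4-parameter fit.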

Row | Compound | IC50 [nM]
1 | COC(=O)N[C@H](C(=O)Nc1cccc(F)c1CC[C@H]1CNC[C@@H](C)N1S(=O)(=O)c1ccccc1)[C@@H](c1ccc(Cl)cc1)C1CCOCC1 [Example 117, (βR)-4-chloro-N-(3-fluoro-2-{2-[(2S,6R)-6-methyl-1-(phenylsulfonyl)piperazin-2-yl]ethyl}phenyl)-Nα-(methoxycarbonyl)-β-(tetrahydro-2H-pyran-4-yl)-L-phenylalaninamide] | 9.3
2 | COc1ccc([C@H](c2ccc(Cl)cc2)[C@H](N)C(=O)Nc2cccc(F)c2CC[C@H]2CNC[C@H](C)N2S(=O)(=O)c2ccccc2)cn1 [Example 118, (βS)-4-chloro-N-(3-fluoro-2-{2-[(2S,6S)-6-methyl-1-(phenylsulfonyl)piperazin-2-yl]ethyl}phenyl)-β-(6-methoxypyridin-3-yl)-L-phenylalaninamide] | 12
3 | COC(=O)N[C@H](C(=O)Nc1cccc(F)c1CC[C@H]1CNC[C@H](C)N1S(=O)(=O)c1ccccc1)[C@@H](c1ccc(Cl)cc1)c1ccc(OC)nc1 [Example 119, (βS)-4-chloro-N-(3-fluoro-2-{2-[(2S,6S)-6-methyl-1-(phenylsulfonyl)piperazin-2-yl]ethyl}phenyl)-Nα-(methoxycarbonyl)-β-(6-methoxypyridin-3-yl)-L-phenylalaninamide] | 9.1
4 | COC(=O)N[C@H](C(=O)Nc1cccc(F)c1CC[C@H]1CNC[C@@H](C)N1S(=O)(=O)c1ccccc1)[C@@H](c1ccc(Cl)cc1)c1ccc(OC)nc1 [Example 120, (βS)-4-chloro-N-(3-fluoro-2-{2-[(2S,6R)-6-methyl-1-(phenylsulfonyl)piperazin-2-yl]ethyl}phenyl)-Nα-(methoxycarbonyl)-β-(6-methoxypyridin-3-yl)-L-phenylalaninamide] | 19
5 | C[C@H]1CNC[C@H](CCc2c(F)cccc2NC(=O)[C@@H](N)[C@@H](c2ccc(Cl)cc2)C2CCOCC2)N1S(C)(=O)=O [Example 121, (βR)-4-chloro-N-(3-fluoro-2-{2-[(2S,6S)-6-methyl-1-(methylsulfonyl)piperazin-2-yl]ethyl}phenyl)-β-(tetrahydro-2H-pyran-4-yl)-L-phenylalaninamide] | 72
6 | CC(C)[C@H](c1ccc(Cl)cc1)[C@H](N)C(=O)Nc1cccc(F)c1CC[C@H]1CNC[C@H](C)N1S(C)(=O)=O [Example 122, (βR)-4-chloro-N-(3-fluoro-2-{2-[(2S,6S)-6-methyl-1-(methylsulfonyl)piperazin-2-yl]ethyl}phenyl)-β-(1-methylethyl)-L-phenylalaninamide] | 360
7 | COC(=O)N[C@H](C(=O)Nc1cccc(F)c1CC[C@H]1CNC[C@H](C)N1S(C)(=O)=O)[C@@H](c1ccc(Cl)cc1)C(C)C [Example 123, (βR)-4-chloro-N-(3-fluoro-2-{2-[(2S,6S)-6-methyl-1-(methylsulfonyl)piperazin-2-yl]ethyl}phenyl)-Nα-(methoxycarbonyl)-β-(1-methylethyl)-L-phenylalaninamide] | 62
8 | COc1ccc(S(=O)(=O)N2[C@@H](CCc3c(F)cccc3NC(=O)[C@@H](N)[C@@H](c3ccc(Cl)cc3)C(C)C)CNC[C@@H]2C)cc1 [Example 124, (βR)-4-chloro-N-[3-fluoro-2-(2-{(2S,6S)-1-[(4-methoxyphenyl)sulfonyl]-6-methylpiperazin-2-yl}ethyl)phenyl]-β-(1-methylethyl)-L-phenylalaninamide] | 63
9 | COC(=O)N[C@H](C(=O)Nc1cccc(F)c1CC[C@H]1CNC[C@H](C)N1S(=O)(=O)c1ccc(OC)cc1)[C@@H](c1ccc(Cl)cc1)C(C)C [Example 125, (βR)-4-chloro-N-[3-fluoro-2-(2-{(2S,6S)-1-[(4-methoxyphenyl)sulfonyl]-6-methylpiperazin-2-yl}ethyl)phenyl]-Nα-(methoxycarbonyl)-β-(1-methylethyl)-L-phenylalaninamide] | 18
